System: Ogataea polymorpha strain NBRC0799-derived carbonyl reductase
Experiment: Reactivity of purified Ogataea polymorpha strain NBRC0799-derived carbonyl reductase to substrates (reduction reaction, NADH decrease at 340 nm)
Assay type: biochemical
Details: substrate 50 mM, NADH 0.1 mM; for Relative Activity (%): (a) Reduction reaction, 168 mM sodium phosphate buffer pH 6.0, 30° C., enzyme activity with acetone as substrate defined as 100%; for conversion speed of the enzyme in comparison with acetone as a substrate: pH 6.0, 30° C.
Experimental: For enzyme activity measurement, NADH was added at a final concentration of 0.1 mM to 168 mM sodium phosphate buffer (pH 6.0) containing an enzyme or a microorganism, and 1,1-difluoroacetone was added at a final concentration of 50 mM to this reaction solution to initiate the reaction (reaction solution volume: 1 mL). The reaction was conducted at 30° C., and decreases in NADH were monitored with a spectrophotometer (V-630BIO, JASCO Corporation, Japan) as changes in absorbance at 340 nm. It should be noted that the enzyme activity was determined assuming that the amount of enzyme required to catalyze the oxidation of 1 μmol NADH per minute was defined as 1 U (unit).
To 168 mM sodium phosphate buffer (pH 6.0) containing the enzyme purified from Ogataea polymorpha strain NBRC0799, NADH was added at a final concentration of 0.1 mM, and the substrates indicated in Table B below were each added at a final concentration of 50 mM to this reaction solution to initiate the reaction (reaction solution volume: I mL). The reaction was conducted at 30° C., and decreases in NADH were measured with a spectrophotometer (V-630BIO, JASCO Corporation, Japan) as changes in absorbance at 340 nm.
Relative activity refers to the ratio of enzyme activity (conversion speed) for each substrate in comparison with the enzyme activity when using acetone as a substrate, which is defined to be 100%. When 1,1-difluoroacetone or 1,1,1-trifluoroacetone is provided as a substrate, the conversion speed per se of the enzyme is reduced (many hours are required to complete the reaction). In the case of acetone, its two methyl groups are equal, so that acetone will be captured by a recognition site in the enzyme without distinction between these two methyl groups. However, in the case of 1,1-difluoroacetone and 1,1,1-trifluoroacetone, their capture by an active site in the enzyme would require recognition between a fluoromethyl group and a methyl group, so that the speed of their capture becomes slower. On the other hand, in the case of 1,3-difluoroacetone, the fluorine atoms introduced thereinto would alter electronegativity and so on, when compared to acetone.

SMILES	Relative Activity (%)	conversion speed of the enzyme in comparison with acetone as a substrate
CC(=O)C(F)(F)F [1,1,1-Trifluoroacetone]	50%	reduced
CC(=O)C(F)F [1,1-Difluoroacetone]	58%	reduced
O=C(CF)CF [1,3-Difluoroacetone]	52%	–
CCC(C)=O [2-Butanone]	132%	–
CC(=O)CC(F)(F)F [4,4,4-Trifluoro-2-butanone]	228%	–
CC=O [Acetaldehyde]	330%	–
CC(C)=O [Acetone, reference compound]	100%	–
CCCC=O [Butyraldehyde]	193%	–
CC(=O)CF [Fluoroacetone]	211%	–
CCC=O [Propionaldehyde]	141%	–

Source: patent publication US20180105840A1, “PROCESS FOR INDUSTRIAL PRODUCTION OF CHIRAL-1,1-DIFLUORO-2-PROPANOL” (PUBLIC UNIVERSITY CORPORATION TOYAMA PREFECTURAL UNIVERSITY, priority 2015, published 2018)
